Assay results as given in patent US20230144824A1, “1H-PYRAZOLO[4,3-d]PYRIMIDINE COMPOUNDS AS TOLL-LIKE RECEPTOR 7 (TLR7) AGONISTS” (BRISTOL-MYERS SQUIBB COMPANY, priority 2020, published 2023).
pEC50: −log10 of the molar value. Like-named read-outs stand apart in the source and are kept apart here.

Assays:
[1] = molecular target: T1, human TLR7 (Homo sapiens, UniProt Q9NYK1); experiment: Human TLR7 agonist activity assay (HEK-Blue TLR7 SEAP reporter); format: cell-based; conditions: HEK-Blue TLR7 cells, 18 h treatment, average where assay performed multiple times, read-out: hTLR7 Agonism EC50
T1 construct: host or cells: HEK-Blue TLR7 cells (engineered human embryonic kidney cells)
T1 sequence (Q9NYK1 27-1049): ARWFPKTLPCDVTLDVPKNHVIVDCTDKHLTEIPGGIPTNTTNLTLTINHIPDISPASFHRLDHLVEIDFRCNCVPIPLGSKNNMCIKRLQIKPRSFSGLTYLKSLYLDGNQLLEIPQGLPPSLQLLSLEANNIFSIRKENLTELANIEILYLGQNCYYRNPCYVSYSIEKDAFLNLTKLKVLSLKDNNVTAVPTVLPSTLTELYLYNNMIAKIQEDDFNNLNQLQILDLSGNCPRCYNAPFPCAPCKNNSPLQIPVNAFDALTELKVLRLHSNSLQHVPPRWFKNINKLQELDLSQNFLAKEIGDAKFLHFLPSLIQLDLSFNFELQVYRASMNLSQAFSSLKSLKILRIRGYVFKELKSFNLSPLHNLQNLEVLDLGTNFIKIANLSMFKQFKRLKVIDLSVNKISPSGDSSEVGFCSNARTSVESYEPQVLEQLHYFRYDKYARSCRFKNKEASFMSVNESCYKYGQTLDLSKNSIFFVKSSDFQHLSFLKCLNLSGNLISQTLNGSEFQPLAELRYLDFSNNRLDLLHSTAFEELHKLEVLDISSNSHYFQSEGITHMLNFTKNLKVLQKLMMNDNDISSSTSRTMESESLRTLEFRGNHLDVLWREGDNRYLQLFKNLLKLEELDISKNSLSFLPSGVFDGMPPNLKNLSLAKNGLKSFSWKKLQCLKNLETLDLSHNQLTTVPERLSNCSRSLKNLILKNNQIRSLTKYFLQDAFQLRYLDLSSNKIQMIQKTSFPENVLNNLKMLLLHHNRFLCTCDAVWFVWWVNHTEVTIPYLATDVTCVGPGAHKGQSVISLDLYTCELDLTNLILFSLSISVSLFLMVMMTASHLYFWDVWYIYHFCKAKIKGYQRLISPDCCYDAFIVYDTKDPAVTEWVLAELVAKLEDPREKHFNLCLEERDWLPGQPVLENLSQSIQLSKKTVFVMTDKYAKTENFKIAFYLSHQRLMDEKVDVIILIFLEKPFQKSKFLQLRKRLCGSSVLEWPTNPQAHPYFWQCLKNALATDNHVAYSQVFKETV
Method: This procedure describes a method for assaying human TLR7 (hTLR7) agonist activity of the compounds disclosed in this specification.
HEK-Blue™ TLR7 cells were added to each well of a 384-well tissue-culture plate (15,000 cells per well) and incubated 16-18 h at 37° C., 5% CO2. Compounds (100 nl) were dispensed into wells containing the HEK-Blue™ TLR cells and the treated cells were incubated at 37° C., 5% CO2. After 18 h treatment ten microliters of freshly-prepared Quanti-Blue™ reagent (Invivogen) was added to each well, incubated for 30 min (37° C., 5% CO2) and SEAP levels measured using an Envision plate reader (OD=620 nm). The half maximal effective concentration values (EC50; compound concentration which induced a response halfway between the assay baseline and maximum) were calculated.

[2] = test system: CD69; experiment: Induction of CD69 in human whole blood; format: cell-based; conditions: 100% set to 1 uM of resiquimod, average where assay performed multiple times, read-out: hWB CD69 EC50
Method: The induction of Type I interferon (IFN) MX-1 genes and the B-cell activation marker CD69 are downstream events that occur upon activation of the TLR7 pathway. The following is a human whole blood assay that measures their induction in response to a TLR7 agonist.
Heparinized human whole blood was harvested from human subjects and treated with test TLR7 agonist compounds at 1 mM. The blood was diluted with RPMI 1640 media and Echo was used to predot 10 nL per well giving a final concentration of 1 uM (10 nL in 10 uL of blood). After mixing on a shaker for 30 sec, the plates were covered and placed in a 37° C. chamber for o/n=17 hrs. Fixing/lysis buffer was prepared (5×->1× in H2O, warm at 37° C.; Cat #BD 558049) and kept the perm buffer (on ice) for later use.
For surface markers staining (CD69): prepared surface Abs: 0.045 ul hCD14-FITC (ThermoFisher Cat #MHCD1401)+0.6 ul hCD19-ef450 (ThermoFisher Cat #48-0198-42)+1.5 ul hCD69-PE (cat #BD555531)+0.855 ul FACS buffer. Added 3 ul/well, spin1000 rpm for 1 min and mixed on shaker for 30 sec, put on ice for 30 mins. Stop stimulation after 30 minutes with 70 uL of prewarmed 1× fix/lysis buffer and use Feliex mate to resuspend (15 times, change tips for each plate) and incubate at 37 C for 10 minutes.
Centrifuge at 2000 rpm for 5 minutes aspirate with HCS plate washer, mix on shaker for 30 sec and then wash with 70 uL in dPBS and pelleted 2×s (2000 rpm for 5 min) and 50 ul wash in FACS buffer pelleted 1×s (2000 rpm for 5 min). Mix on shaker for 30 sec. For Intracellular markers staining (MX-1): Add 50 ul of BD Perm buffer III and mix on shaker for 30 sec. Incubate on ice for 30 minutes (in the dark). Wash with 50 uL of FACS buffer 2×(spin @2300 rpm×5 min after perm) followed by mixing on shaker for 30 sec. Resuspended in 20 ul of FACS buffer containing MX1 antibody ( )(4812)-Alexa 647: Novus Biologicals #NBP2-43704AF647) 20 ul FACS bf+0.8 ul hIgG+0.04 ul MX-1. Spin 1000 rpm for 1 min, mix on shaker for 30 se and the samples were incubated at RT in the dark for 45 minutes followed by washing 2×FACS buffer (spin @2300 rpm×5 min after perm). Resuspend 20 ul (35 uL total per well) of FACS buffer and cover with foil and place in 4° C. to read the following day. Plates were read on iQuePlus. The results were loaded into toolset and IC50 curves are generated in curve master. The y-axis 100% is set to 1 uM of resiquimod.

Structure (SMILES) | pEC50 [1] | pEC50 ([2]; Homo sapiens, 17 h) | pEC50 ([2]; 17 hrs)
COc1cc(C2CCN(C3CCOCC3)CC2)cnc1Cn1ncc2nc(N)nc(NCC3CC4(CC4)C3)c21 [Compound 157, 1-({3-methoxy-5-[1-(oxan-4-yl)piperidin-4-yl]pyridin-2-yl}methyl)-N7-({spiro[2.3]hexan-5-yl}methyl)-1H-pyrazolo[4,3-d]pyrimidine-5,7-diamine] | 7.29 | 7.43 | 
CCCCNc1nc(N)nc2cnn(Cc3ncc(C4CCN(CCO)CC4)cc3OC)c12 [Compound 114, 2-[4-(6-{[5-amino-7-(butylamino)-1H-pyrazolo[4,3-d]pyrimidin-1-yl]methyl}-5-methoxypyridin-3-yl)piperidin-1-yl]ethan-1-ol] | 7.30 | 8.44 | 
CCC[C@@H](CCO)Nc1nc(N)nc2cnn(Cc3cnc(C4CCN(CCO)CC4)cc3OC)c12 [Compound 173, (3S)-3-{[5-amino-1-({6-[1-(2-hydroxyethyl)piperidin-4-yl]-4-methoxypyridin-3-yl}methyl)-1H-pyrazolo[4,3-d]pyrimidin-7-yl]amino}hexan-1-ol] | 7.05 | 8.32 | 
CCCCNc1nc(N)nc2cnn(Cc3ncc(C4CCN(C(C)C)CC4)cc3OC)c12 [Compound 113, N7-butyl-1-({3-methoxy-5-[1-(propan-2-yl)piperidin-4-yl]pyridin-2-yl}methyl)-1H-pyrazolo[4,3-d]pyrimidine-5,7-diamine] | 7.33 | 8.03 | 
CCCCNc1nc(N)nc2c(C)nn(Cc3ncc(C4CCN(C5CCOCC5)CC4)cc3OC)c12 [Compound 121, N7-butyl-1-({3-methoxy-5-[1-(oxan-4-yl)piperidin-4-yl]pyridin-2-yl}methyl)-3-methyl-1H-pyrazolo[4,3-d]pyrimidine-5,7-diamine] | 6.22 | 6.92 | 
CCC[C@@H](CCO)Nc1nc(N)nc2cnn(Cc3ncc(C4CCCCN4)cc3OC)c12 (stereo partly drawn) [Compound 179, (3S)-3-[(5-amino-1-{[3-methoxy-5-(piperidin-2-yl)pyridin-2-yl]methyl}-1H-pyrazolo[4,3-d]pyrimidin-7-yl)amino]hexan-1-ol] | 6.63 | 8.55 | 
CCC[C@@H](CCO)Nc1nc(N)nc2cnn(Cc3cnc(C4CCN(C(C)C)CC4)cc3OC)c12 [Compound 167, (3S)-3-{[5-amino-1-({4-methoxy-6-[1-(propan-2-yl)piperidin-4-yl]pyridin-3-yl}methyl)-1H-pyrazolo[4,3-d]pyrimidin-7-yl]amino}hexan-1-ol] | 8.03 | 9.77 | 
CCC[C@@H](CCO)Nc1nc(N)nc2cnn(Cc3ccc(C4CN(C(C)C)CCN4)cc3OC)c12 (stereo partly drawn) [Compound 184, (3S)-3-{[5-amino-1-({2-methoxy-4-[4-(propan-2-yl)piperazin-2-yl]phenyl}methyl)-1H-pyrazolo[4,3-d]pyrimidin-7-yl]amino}hexan-1-ol] | 8.19 |  | 9.82
CCC[C@@H](CCO)Nc1nc(N)nc2cnn(Cc3cnc(C4CCN(C)CC4)cc3OC)c12 [Compound 174, (3S)-3-[(5-amino-1-{[4-methoxy-6-(1-methylpiperidin-4-yl)pyridin-3-yl]methyl}-1H-pyrazolo[4,3-d]pyrimidin-7-yl)amino]hexan-1-ol] | 7.96 | 8.54 | 
CCC[C@@H](CCO)Nc1nc(N)nc2cnn(Cc3nc(C4CCN(C(C)C)CC4)ccc3OC)c12 [Compound 190, (3S)-3-{[5-amino-1-({3-methoxy-6-[1-(propan-2-yl)piperidin-4-yl]pyridin-2-yl}methyl)-1H-pyrazolo[4,3-d]pyrimidin-7-yl]amino}hexan-1-ol] | 6.76 | 7.57 | 
CCCCNc1nc(N)nc2cnn(Cc3ncc(C4CCN(C(=O)CN5CC6(CN(C)C6)C5)CC4)cc3OC)c12 [Compound 117, 1-[4-(6-{[5-amino-7-(butylamino)-1H-pyrazolo[4,3-d]pyrimidin-1-yl]methyl}-5-methoxypyridin-3-yl)piperidin-1-yl]-2-{6-methyl-2,6-diazaspiro[3.3]heptan-2-yl}ethan-1-one] | 6.07 | 6.51 | 

The remaining compounds from weak to strong by pEC50 [1], led by results:

pEC50 [1] | pEC50 ([2]; Homo sapiens, 17 h) | pEC50 ([2]; 17 hrs) | Structure (SMILES)
6.49 | 6.00 |  | CCCCNc1nc(N)nc2cnn(Cc3cc(F)c(N4CCN(C(=O)CNCCS(C)(=O)=O)CC4)cc3OC)c12 [Compound 197, 1-[4-(4-{[5-amino-7-(butylamino)-1H-pyrazolo[4,3-d]pyrimidin-1-yl]methyl}-2-fluoro-5-methoxyphenyl)piperazin-1-yl]-2-[(2-methanesulfonylethyl)amino]ethan-1-one]
6.92 | 7.06 |  | CCCCNc1nc(N)nc2cnn(Cc3ncc(C4CCN(C5COC5)CC4)cc3OC)c12 [Compound 102, N7-butyl-1-({3-methoxy-5-[1-(oxetan-3-yl)piperidin-4-yl]pyridin-2-yl}methyl)-1H-pyrazolo[4,3-d]pyrimidine-5,7-diamine]
7.24 | 7.99 |  | CCC[C@@H](CCO)Nc1nc(N)nc2cnn(Cc3ncc(C4CCN(CCO)CC4)cc3OC)c12 [Compound 125, (3S)-3-{[5-amino-1-({5-[1-(2-hydroxyethyl)piperidin-4-yl]-3-methoxypyridin-2-yl}methyl)-1H-pyrazolo[4,3-d]pyrimidin-7-yl]amino}hexan-1-ol]
7.36 | 8.25 |  | COc1cc(C2CCN(C(C)C)CC2)cnc1Cn1ncc2nc(N)nc(NCc3cc(C)on3)c21 [Compound 142, 1-({3-methoxy-5-[1-(propan-2-yl)piperidin-4-yl]pyridin-2-yl}methyl)-N7-[(5-methyl-1,2-oxazol-3-yl)methyl]-1H-pyrazolo[4,3-d]pyrimidine-5,7-diamine]
7.38 | 7.93 |  | CCC[C@@H](CCO)Nc1nc(N)nc2cnn(Cc3ncc(C4CCN(C(=O)CN(C)C)CC4)cc3OC)c12 [Compound 135, 1-(4-{6-[(5-amino-7-{[(3S)-1-hydroxyhexan-3-yl]amino}-1H-pyrazolo[4,3-d]pyrimidin-1-yl)methyl]-5-methoxypyridin-3-yl}piperidin-1-yl)-2-(dimethylamino)ethan-1-one]
